Structures can show the parent of a compound that is named as a salt.
What was measured:
in vitro = conditions: guinea pig, Permeability Coefficient (cm/hr) ± SEM, saturated dodecanol, Example 13
[1] = for amount of higher alcohol necessary to reach a small permanent visible excess: H^3-mannitol in 30% v/v aqueous ethanol
Procedure: Trace amounts of H^3 -mannitol were added to 10 ml aliquots of a 33% (v/v) ethanol/water solution. The saturating amount of octanol for this solution was determined to be 45 μl per aliquot. Varying amounts of octanol were added to each aliquot as shown below. The aliquots were warmed and kept at 32° C. until use.

Structure (SMILES) | amount of higher alcohol necessary to reach a small permanent visible excess [1] | also measured
COc1ccc([C@@H]2Sc3ccccc3N(CCN(C)C)C(=O)[C@@H]2OC(C)=O)cc1 [Diltiazem Hydrochloride] | – | Papp at 8 h (in vitro; 20% v/v ethanol): 0.0336 ×10⁻⁶ cm/s; Papp at 8 h (in vitro; 30% v/v ethanol): 0.0925 ×10⁻⁶ cm/s; Papp at 8 h (in vitro; 40% v/v ethanol): 0.319 ×10⁻⁶ cm/s; Papp at 8 h (in vitro; 50% v/v ethanol): 0.294 ×10⁻⁶ cm/s; Papp at 8 h (in vitro; no ethanol): 0.00764 ×10⁻⁶ cm/s
CCCCCCCCCCO [decanol] | ~10 μl/ml | –
CCCCCCCCCCCCO [dodecanol] | ~10 μl/ml | –
CCCCCCCCCCCCCCCCO [hexadecanol] | ~0.1 mg/mL | –
CCCCCCCCCCCCCCCCCCO [octadecanol] | ~0.1 mg/mL | –
CCCCCCCCO [octanol] | ~20 μl/ml | saturating amount of octanol ([1]; 10 ml aliquots of 33% (v/v) ethanol/water with trace H^3-mannitol): 45 μl per aliquot
CCCCCO [pentanol] | 100 μl/ml | –
CCCCCCCCCCCCCCO [tetradecanol] | ~4 mg/mL | –
CCCCCCCCCCCCCO [tridecanol] | ~4 mg/mL | –

Reference: patent publication US5149719A, “Composition for transdermal penetration of medicaments” (priority 1990, dated 1992)
